Results taken from patent EP0207358A2, “Growth-promoting agent” (BAYER AG, priority 1985, dated 1987).

tested on: Weibliche Laborratten; assay: Rat feeding trial (Ratten-Fütterungsversuch); format: in vivo; settings: female SPF Wistar rats 90-110 g; active substance mixed into standard rat feed ad lib; 13-day trial; compared with control group on feed without active substance
Text: Weibliche Laborratten 90-110 g schwer vom Typ SPF Wistar (Züchtung Hagemann) werden ad lib mit Standard-Rattenfutter, das mit der gewünschten Menge Wirkstoff versetzt ist, gefüttert. Jeder Versuchsansatz wird mit Futter der identischen Charge durchgeführt, so daß Unterschiede in der Zusammensetzung des Futters die Vergleichbarkeit der Ergebnisse nicht beeinträchtigen können.
Die Ratten erhalten Wasser ad lib.
Jeweils 12 Ratten bilden eine Versuchsgruppe und werden mit Futter, das mit der gewünschten Menge Wirkstoff versetzt ist, gefüttert. Eine Kontrollgruppe erhält Futter ohne Wirkstoff. Das durchschnittliche Körpergewicht sowie die Streuung in den Körpergewichten der Ratten ist in jeder Versuchsgruppe gleich, so daß eine Vergleichbarkeit der Versuchsgruppen untereinander gewährleistet ist.
Gewichtszunahme und Futterverbrauch werden während des 13-tägigen Versuches bestimmt.

Compound | Gewichtszunahmen im Vergleich zur Kontrolle
COC(=O)[C@H](Cc1c[nH]c2ccccc12)NC(=O)Nc1cccc2ccccc12 [Beispiel 3] | deutliche Gewichtszunahmen
CCOC(=O)c1c(NC(=O)N[C@@H](CCSC)C(=O)OC)sc(-c2ccccc2)c1C [Beispiel 1] | deutliche Gewichtszunahmen
CC[C@H](C)[C@H](NC(=O)Nc1cccc2ccccc12)C(=O)O [Beispiel 2] | deutliche Gewichtszunahmen
